Legend:
SH-SY5Y cells = assay: Cell proliferation (anti-proliferation) assay, MTS; assay type: cell-based, human
Procedure: SH-SY5Y cells were grown in DMEM with L-glutamin supplemented with streptomycin ([…]), penicillin (100 units/mL), and 10% fetal bovine serum (FBS). Cells were grown to confluence in a humidified atmosphere (37 °C, 5% CO2).
SH-SY5Y cells (1.5 × 10^3 cells/well) were seeded in a clear 96-well plate, the medium volume was brought to 100 µL, and the cells were allowed to attach overnight. The next day, various concentrations of compounds or DMSO were added to the wells. Cells were then incubated at 37 °C for 24, 48 and 72 h. Cell viability was determined using the Promega Cell Titer 96 Aqueous One Solution cell proliferation assay. Absorbance at 490 nm was read on Tecan Infinite F200 Pro plate reader, and values were expressed as percent of absorbance from cells incubated in DMSO alone.

HDAC1 = biological target: T1, HDAC1 (Homo sapiens, UniProt Q13547); assay: HDAC activity assay (fluorimetric, BPS Biosciences); assay type: biochemical; details: class I; mean ± SD (n = 2)
T1 construct: purchased BPS Biosciences
T1 sequence (Q13547 whole entry): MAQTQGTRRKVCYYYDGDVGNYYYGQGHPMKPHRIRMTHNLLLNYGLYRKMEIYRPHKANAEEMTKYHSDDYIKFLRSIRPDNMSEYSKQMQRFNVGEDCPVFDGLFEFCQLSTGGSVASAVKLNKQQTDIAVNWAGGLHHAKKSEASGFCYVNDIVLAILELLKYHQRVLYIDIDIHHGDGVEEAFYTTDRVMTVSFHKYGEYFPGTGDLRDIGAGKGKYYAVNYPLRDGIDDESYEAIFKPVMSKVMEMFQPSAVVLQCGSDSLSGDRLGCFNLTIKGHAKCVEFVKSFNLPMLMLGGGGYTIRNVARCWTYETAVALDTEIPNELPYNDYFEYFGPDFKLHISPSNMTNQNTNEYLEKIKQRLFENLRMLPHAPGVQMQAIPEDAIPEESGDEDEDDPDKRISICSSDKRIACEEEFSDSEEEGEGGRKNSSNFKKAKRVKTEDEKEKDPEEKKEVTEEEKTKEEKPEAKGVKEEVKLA
Procedure: (§1) HDAC1, 3, 6 and 7 activity assays were performed according to the manufacturer’s protocol (BPS Biosciences). […] The HDAC assay developer was added to the mixture and incubated the plate at rt for 15 min. The fluorescence intensity was measured using a Tecan Infinite F200 Pro plate reader.

HDAC3 = biological target: T2, HDAC3 (Homo sapiens, UniProt O15379); assay: as above; assay type: biochemical; details: class I; mean ± SD (n = 2)
T2 construct: purchased BPS Biosciences
T2 sequence (O15379 whole entry): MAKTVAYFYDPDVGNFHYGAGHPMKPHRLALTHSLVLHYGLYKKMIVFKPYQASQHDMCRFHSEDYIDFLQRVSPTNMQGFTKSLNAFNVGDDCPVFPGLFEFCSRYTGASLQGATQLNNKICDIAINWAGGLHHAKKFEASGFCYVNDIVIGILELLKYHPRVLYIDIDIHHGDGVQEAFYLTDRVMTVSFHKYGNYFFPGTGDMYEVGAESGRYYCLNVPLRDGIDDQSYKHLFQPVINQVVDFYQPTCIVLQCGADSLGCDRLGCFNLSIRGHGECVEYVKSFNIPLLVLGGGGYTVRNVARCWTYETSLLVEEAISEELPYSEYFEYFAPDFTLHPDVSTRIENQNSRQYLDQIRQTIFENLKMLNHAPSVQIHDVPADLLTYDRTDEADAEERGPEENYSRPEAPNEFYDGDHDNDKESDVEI
T2 sequence (Q9Y618 395-489 partner limits assumed): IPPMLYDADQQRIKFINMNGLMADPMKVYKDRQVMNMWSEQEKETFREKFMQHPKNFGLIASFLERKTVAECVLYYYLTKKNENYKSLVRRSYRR
Procedure: as §1

HDAC7 = biological target: T3, HDAC7 (Homo sapiens, UniProt Q8WUI4); assay: as above; assay type: biochemical; details: class IIa in Table 4; mean ± SD (n = 2)
T3 construct: purchased BPS Biosciences
T3 sequence (Q8WUI4 1-952): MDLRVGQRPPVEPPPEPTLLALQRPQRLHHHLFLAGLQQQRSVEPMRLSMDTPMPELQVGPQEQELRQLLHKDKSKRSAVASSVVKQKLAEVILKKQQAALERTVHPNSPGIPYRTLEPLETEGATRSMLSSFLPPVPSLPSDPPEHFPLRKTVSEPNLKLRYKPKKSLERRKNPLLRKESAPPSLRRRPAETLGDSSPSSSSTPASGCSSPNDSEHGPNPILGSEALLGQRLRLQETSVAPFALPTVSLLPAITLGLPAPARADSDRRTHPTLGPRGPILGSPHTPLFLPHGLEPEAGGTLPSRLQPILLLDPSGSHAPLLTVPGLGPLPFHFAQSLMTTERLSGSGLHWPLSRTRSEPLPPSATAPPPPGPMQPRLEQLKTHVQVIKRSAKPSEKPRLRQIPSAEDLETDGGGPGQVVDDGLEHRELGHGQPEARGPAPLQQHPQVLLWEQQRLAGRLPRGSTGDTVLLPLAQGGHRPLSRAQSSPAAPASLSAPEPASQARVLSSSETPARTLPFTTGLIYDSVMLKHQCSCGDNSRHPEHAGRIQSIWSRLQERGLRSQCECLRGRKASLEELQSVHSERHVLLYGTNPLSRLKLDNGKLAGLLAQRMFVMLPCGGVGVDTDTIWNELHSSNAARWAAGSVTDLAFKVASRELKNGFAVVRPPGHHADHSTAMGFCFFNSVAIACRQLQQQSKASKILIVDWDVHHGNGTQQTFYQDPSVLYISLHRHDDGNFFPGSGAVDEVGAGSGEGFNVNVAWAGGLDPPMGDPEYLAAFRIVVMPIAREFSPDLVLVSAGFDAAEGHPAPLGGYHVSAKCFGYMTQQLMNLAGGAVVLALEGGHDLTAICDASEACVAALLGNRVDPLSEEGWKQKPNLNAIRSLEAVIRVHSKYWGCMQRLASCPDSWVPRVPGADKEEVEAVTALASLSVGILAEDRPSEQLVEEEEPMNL
Procedure: as §1

Structure (SMILES): O=C(NO)c1ccc(-c2nc3ccccc3s2)cc1 [Compound 9b]
- SH-SY5Y cell growth impaired (SH-SY5Y cells; 5 μM, 72 hours): ~73%
- GI50 (SH-SY5Y cells; Homo sapiens, SH-SY5Y neuroblastoma cell line, 72 h, mean ± SD (n = 4)): 2.01 ± 0.33 µM
- IC50 (SH-SY5Y cells; Homo sapiens, SH-SY5Y, Table 1 values IC50, read-out: anti-proliferative activity IC50 against SH-SY5Y cell line): 2010 nM
- IC50 (HDAC1): 84.9 ± 25.1 nM
- IC50 (HDAC3): 142 ± 45.7 nM
- IC50 (HDAC7): 3040 nM

From publication PMC6742641, “Design, synthesis and biological evaluation of a series of CNS penetrant HDAC inhibitors structurally derived from amyloid-β probes” (Scientific Reports, 2019)
